In this assay the target is T1, human sodium/iodide symporter (hNIS) (Homo sapiens, UniProt Q92911).
T1 construct: gene SLC5A5; hNIS stably transfected in HCT116 human colon carcinoma cells (HCT116-hNIS-C19)
T1 sequence (Q92911 1-643): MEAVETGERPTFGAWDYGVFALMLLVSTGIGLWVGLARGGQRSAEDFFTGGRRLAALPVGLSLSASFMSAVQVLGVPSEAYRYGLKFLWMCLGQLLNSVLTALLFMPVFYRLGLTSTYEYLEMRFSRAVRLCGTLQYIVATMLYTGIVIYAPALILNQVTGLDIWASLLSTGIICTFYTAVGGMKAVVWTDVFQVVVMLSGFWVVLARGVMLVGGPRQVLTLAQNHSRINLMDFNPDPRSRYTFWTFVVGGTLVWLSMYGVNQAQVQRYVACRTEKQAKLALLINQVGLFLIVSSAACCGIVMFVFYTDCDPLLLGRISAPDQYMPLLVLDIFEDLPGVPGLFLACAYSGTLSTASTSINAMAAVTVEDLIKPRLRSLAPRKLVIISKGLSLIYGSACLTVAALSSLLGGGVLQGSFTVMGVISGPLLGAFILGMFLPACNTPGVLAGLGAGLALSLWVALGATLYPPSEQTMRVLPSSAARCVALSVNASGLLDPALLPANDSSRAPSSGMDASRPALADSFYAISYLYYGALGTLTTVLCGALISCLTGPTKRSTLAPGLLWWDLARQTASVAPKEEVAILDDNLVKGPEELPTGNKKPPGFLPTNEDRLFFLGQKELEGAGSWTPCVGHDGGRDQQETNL
Put plainly: inhibition of […]BF4- uptake in hNIS-transfected cells, gamma counting. The assay is classed as cell-based.

pIC50: −log10 of the molar value.

The record followed here is article PMC4840125, “[^18F]tetrafluoroborate as a PET tracer for the sodium/iodide symporter: the importance of specific activity” (EJNMMI Research, 2016).

`F[B-](F)(F)F` [[19F]BF4-] showed a pIC50 of 5.33.

As a reminder, the pIC50 is the IC50 on a negative log10 scale, so that one unit is a factor of ten. Read a low pIC50 as a large IC50.
